The target of test [1] is T1, WT STING (Homo sapiens, UniProt Q86WV6, H232R).
T1 construct: encoded truncated human WT STING or AQ STING (amino acid residues 140-343) with N-terminal 8×His and SUMO tag; 8xHis-SUMO (N, cleaved yes); made in house; host or cells: E. coli Rosetta-gami B (DE3)
In words: Differential Scanning Fluorimetry (DSF) with WT STING. Format: binding. As to conditions: thermal shift vs STING apoprotein; 150 μM CDN; 0.1 mg/ml protein; SYPRO Orange. As for the experimental part: (§1) WT STING and AQ STING Proteins
(§2) Purified PCR products were cleaved with restriction enzymes BamHI (cat. #R0136S, NEB, Ipswich, USA) and NotI (cat. #R0189S, NEB, Ipswich, USA) and cloned into the pSUMO vector linearized with the identical enzymes.
(§3) DNase I (cat. #D5025, Sigma Aldrich, Czech Republic) and RNase A (cat. #R6513, Sigma Aldrich, Czech Republic) were added (final concentration 50 μg/ml) together with MgCl2 (final concentration 5 mmol·l^−1) to the homogenate and bacteria were lysed using French Press G-M™ High-Pressure Cell Press Homogenizer (1500 psi, 3 cycles). […] The resin was poured into a chromatography column, washed with 50 ml buffer A (50 mmol·l^−1 TrisCl (pH 8.0), 800 mmol·l^−1 NaCl, 3 mmol·l^−1 3-mercaptol; 10% glycerol; 20 mmol·l^−1 imidazole) and 8-His-SUMO tagged STING proteins were eluted with 15 ml buffer A containing 300 mmol·l^−1 imidazole. […] Proteins were concentrated with Amicon® Ultra-15 10 K device (cat. #UFC901008, Merck Millipore, Billerica, USA) and flash frozen in liquid N2.
(§4) Differential Scanning Fluorimetry (DSF) with WT STING and AQ STING
(§5) 20 μL solutions of the reaction mixtures were pipetted in triplicates into 96 well optical reaction plates and thermal denaturation of samples were performed on real time PCR cycler (LightCycler R 480 Instrument II—Roche, Basel, Switzerland). The first derivative of the thermal denaturation curves was performed to calculate denaturing temperatures of STING-CDN complexes and STING apoproteins. The thermal shift for each CDN was calculated by subtracting the average denaturing temperature of STING apoprotein from the average denaturing temperature of STING CDN complex.
(In general: Differential scanning fluorimetry follows unfolding on heating by fluorescence.)

For test [2], the target named is T2, AQ STING (G230A-R293Q) (Homo sapiens, UniProt Q86WV6, G230A/H232R/R293Q).
T2 construct: encoded truncated human WT STING or AQ STING (amino acid residues 140-343) with N-terminal 8×His and SUMO tag; 8xHis-SUMO (N, cleaved yes); made in house; host or cells: E. coli Rosetta-gami B (DE3)
T2 sequence (Q86WV6 140-343 G230A/H232R/R293Q): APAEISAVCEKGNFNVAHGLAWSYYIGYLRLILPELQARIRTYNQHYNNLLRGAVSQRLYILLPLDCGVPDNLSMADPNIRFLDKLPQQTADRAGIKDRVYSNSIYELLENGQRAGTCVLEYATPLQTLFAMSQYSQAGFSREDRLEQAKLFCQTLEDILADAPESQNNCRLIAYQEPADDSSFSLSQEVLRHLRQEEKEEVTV
Description: Differential Scanning Fluorimetry (DSF) with AQ STING. Format: binding. Conditions: thermal shift vs STING apoprotein; 150 μM CDN; 0.1 mg/ml protein; SYPRO Orange. As for the experimental part:
as §1, §2, §3, §4, §5

The target of test [3] is T3, human wild type STING (WT STING) (Homo sapiens, UniProt Q86WV6, H232R).
T3 construct: host or cells: 293T (ATCC CRL-3216), stably transfected, with a 4xISRE firefly luciferase reporter
T3 sequence (Q86WV6 whole entry H232R): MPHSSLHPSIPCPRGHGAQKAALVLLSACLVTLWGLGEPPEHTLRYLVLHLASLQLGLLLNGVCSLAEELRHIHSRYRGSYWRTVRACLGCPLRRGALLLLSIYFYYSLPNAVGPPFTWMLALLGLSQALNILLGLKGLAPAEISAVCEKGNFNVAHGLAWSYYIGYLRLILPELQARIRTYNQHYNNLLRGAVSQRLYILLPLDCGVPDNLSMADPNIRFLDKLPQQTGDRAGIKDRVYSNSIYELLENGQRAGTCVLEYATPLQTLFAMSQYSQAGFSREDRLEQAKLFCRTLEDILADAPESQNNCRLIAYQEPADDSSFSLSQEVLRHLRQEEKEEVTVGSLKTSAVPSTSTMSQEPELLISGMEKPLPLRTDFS
Description: Digitonin assay using 293T wtSTING-FL reporter cells. Type of test: cell-based. As to conditions: 293T wtSTING-FL cells; ISRE firefly luciferase reporter; 30 min in Digitonin buffer, then 5 hours; 8-point dose-response curve. An excerpt:
ISRE Reporter Plasmid (pGL64.27-4×ISRE)
Two complementary oligonucleotides of the sequence […] […] […] […] […] The oligonucleotides were mixed in equal molar amounts, hybridized, and cleaved by restriction endonucleases HindIII (cat. #. R0104S, NEB, Ipswich, USA) and BglII (cat. #R0144S, NEB, Ipswich, USA). Ultimately, they were ligated into plasmid pGL4.27 (cat. #E6651, Promega, Madison, USA) linearized with the same enzymes. As result the sequence with four ISRE sites was placed upstream of the minimum promoter of firefly luciferase reporter gene.
After 5 minutes incubation at room temperature (RT), 250 μL of the mixture was added dropwise to the cells in one well. Cells were incubated 36 hours at 37° C. with 5% CO2, and then detached with 0.05% Trypsin and 0.22 g/L EDTA (both cat. #L0941, Biowest, Riverside, USA).
Transfected cells were seeded onto poly-D-lysine coated six well plates at density 50,000 cells per 1 cm^2 in DMEM medium with high glucose containing 10% heat inactivated FBS, 30 μg/mL blasticidin (cat. #ant-bl-05, InvivoGen, San Diego, USA), 0.06 mg/ml Penicillin G and 0.1 mg/ml Streptomycin Sulfate (both cat. #. L0018, Biowest, Riverside, USA). The medium was replenished every 3-4 days until visible colonies of cells resistant to blasticidin were formed.
Blasticidin resistant cells stably expressing WT STING were further transfected with pGL64.27-4×ISRE plasmid following the same procedure as described above. […] Homogeneous culture of stably double transfected cells was prepared by limiting dilution of cells in 96 well plates and wells with cells were selected that originated from a single cell.
The medium was removed next day and three fold serial dilutions of compounds in Digitonin buffer containing 50 mmol·l^−1 HEPES (cat. #H3375, Sigma Aldrich, Czech Republic) pH 7.0, 100 mmol·l^−1 KCl, 3 mmol·l^−1 MgCl2, 0.1 mmol·l^−1 DTT (cat. #D0632, Sigma Aldrich, Czech Republic), 85 mmol·l^−1 Sucrose (cat. #S7903, Sigma Aldrich, Czech Republic), 0.2% BSA (cat. #A2153, Sigma Aldrich, Czech Republic), 1 mmol·l^−1 ATP (cat. #A1852, Sigma Aldrich, Czech Republic), 0.1 mmol·l^−1 GTP (cat. #G8877, Sigma Aldrich, Czech Republic), and 10 μg/mL Digitonin A (cat. #D141, Sigma Aldrich, Czech Republic) were added to the cells. The buffer was removed after 30 minutes incubation at 37° C. with 5% CO2, the cells were washed once with 100 μl of cultivation medium, and 100 μl of medium was added to each well. The plates with cells were incubated for 5 hours at 37° C. with 5% CO2, 50 μl of the medium was removed and 30 μl of ONE-Glo™ Luciferase Assay System reagent (cat. #E6120, Promega, Madison, USA) was added to each well. Luminescence was read on Synergy H1 (Biotek, Winooski, USA).
(A reporter such as luciferase makes a cellular process visible.)

T1 sequence (Q86WV6 140-343 H232R): as the sequence (Q86WV6 140-343 G230A/H232R/R293Q) above, with A91G, Q154R counted along it

In general, ΔTm refers to the change in melting temperature against a reference sample. For orientation: EC50 means the concentration needed to bring the measured effect to its halfway point. With `CNc1ncnc2c1ncn2[C@@H]1O[C@@H]2COP(=O)(O)OC3C(O)[C@H](n4cnc5c(=O)[nH]c(N)nc54)O[C@@H]3OCP(=O)(O)OC2C1O` (stereo partly drawn) [Compound 39], the ΔTm at 150 µM in test [1] was 2.9 °C; in test [2] it was 8 °C. Besides, in test [3], the EC50 turned out to be 120 nM.

`Nc1nc(Cl)c2ncn([C@@H]3O[C@@H]4COP(=O)(O)OC5C(O)[C@H](n6cnc7c(N)ncnc76)O[C@@H]5OCP(=O)(O)OC4C3O)c2n1` (stereo partly drawn) [Compound 40]: the figures for the ΔTm at 150 µM in test [1] and in test [2] were 0.4 °C and 2.1 °C, respectively. For the same compound, the half-maximal effective concentration (EC50) in test [3] turned out to be 7500 nM.

As for `COc1nc(N)nc2c1ncn2[C@@H]1O[C@@H]2COP(=O)(O)OC3C(O)[C@H](n4cnc5c(N)ncnc54)O[C@@H]3OCP(=O)(O)OC2C1O` (stereo partly drawn) [Compound 41], the ΔTm at 150 µM is 0.1 °C in test [1] and 1.6 °C in test [2]. In addition, the concentration for a half-maximal effect (EC50) in test [3] worked out at 17600 nM.

Consider `Nc1ncc2ncn([C@@H]3O[C@@H]4COP(=O)(O)OC5C(O)[C@H](n6cnc7c(N)ncnc76)O[C@@H]5OCP(=O)(O)OC4C3O)c2n1` (stereo partly drawn) [Compound 42], for which the ΔTm at 150 µM in test [1] worked out at 0.7 °C; in test [2] it was 6.6 °C. For the same compound, in test [3], the EC50 came out at 600 nM.

Regarding `Nc1nc2c(ccn2[C@@H]2O[C@@H]3COP(=O)(O)OC4C(O)[C@H](n5cnc6c(N)ncnc65)O[C@@H]4OCP(=O)(O)OC3C2O)c(=O)[nH]1` (stereo partly drawn) [Compound 43], the ΔTm at 150 µM was 0.6 °C in test [1] and 3.3 °C in test [2]. Besides, the EC50 in test [3] was determined as 4700 nM.

With `Nc1nc2c(ncn2[C@@H]2O[C@@H]3COP(=O)(O)OC4C(O)[C@H](n5cnc6c(N)ncnc65)O[C@@H]4OCP(=O)(O)OC3C2O)c(=O)[nH]1` (stereo partly drawn) [Compound 44], the ΔTm at 150 µM in test [1] stood at 4.5 °C; in test [2] it was 11.2 °C. Further, in test [3], the EC50 was found to be 90 nM.

With `CSc1nc(N)nc2c1ncn2[C@@H]1O[C@@H]2COP(=O)(O)OC3C(O)[C@H](n4cnc5c(N)ncnc54)O[C@@H]3OCP(=O)(O)OC2C1O` (stereo partly drawn) [Compound 45], the ΔTm at 150 µM in test [1] turned out to be 0 °C; in test [2], 1.1 °C. Further, the EC50 in test [3] was determined as 20800 nM.

For the compound `Nc1ncnc2c1ncn2[C@@H]1O[C@@H]2COP(=O)(O)OC3C(O)[C@H](n4cnc5c(N)ncnc54)O[C@@H]3OCP(=O)(O)OC2C1N` (stereo partly drawn) [Compound 47], the ΔTm at 150 µM in test [1] is 0.1 °C; in test [2] it was 2.1 °C. Further, in test [3], the EC50 was 20800 nM.

On to `CNc1ncnc2c1ncn2[C@@H]1O[C@@H]2COP(=O)(O)OC3C(O)[C@H](n4cnc5c(N)ncnc54)O[C@@H]3OCP(=O)(O)OC2C1O` (stereo partly drawn) [Compound 48], for which the ΔTm at 150 µM was 0.6 °C in test [1] and 4.4 °C in test [2]. In test [3], the EC50 turned out to be 1500 nM.

As to `Nc1ncnc2c1ncn2[C@@H]1O[C@@H]2OCP(=O)(O)OC3C(O)[C@H](n4cnc5c(N)ncnc54)O[C@@H]3COP(=O)(S)OC2C1O` (stereo partly drawn) [Compound 49], the figures for the ΔTm at 150 µM in test [1] and in test [2] were 0.5 °C and 4.2 °C, respectively. Moreover, the EC50 in test [3] is 1500 nM.

For `Nc1ncnc2c1ccn2[C@@H]1O[C@@H]2COP(=O)(O)OC3C(O)[C@H](n4cnc5c(N)ncnc54)O[C@@H]3OCP(=O)(O)OC2C1O` (stereo partly drawn) [Compound 50], the ΔTm at 150 µM amounted to 0.4 °C in test [1] and 2 °C in test [2]. In addition, in test [3], the 50% effective concentration (EC50) is 8600 nM.

For `Nc1ncnc2c1ncn2[C@@H]1O[C@@H]2OCP(=O)(O)OC3C(O)[C@H](n4cnc5c(N)ncnc54)O[C@@H]3COP(=O)(O)OC2C1O` (stereo partly drawn) [Compound 51], the ΔTm at 150 µM in test [1] was found to be 4 °C; in test [2], 10.6 °C. In addition, in test [3], the EC50 amounted to 170 nM.

`Nc1ncnc2c1ncn2[C@@H]1O[C@@H]2OCP(=O)(O)OC3C(O)[C@H](n4cnc5c(N)nc(F)nc54)O[C@@H]3COP(=O)(O)OC2C1O` (stereo partly drawn) [Compound 52]: the ΔTm at 150 µM in test [1] is 1.1 °C; in test [2] it was 6.3 °C. The EC50 in test [3] came out at 2200 nM.

As to `Nc1ncnc2c1ncn2[C@@H]1O[C@@H]2OCP(=O)(O)OC3C(F)[C@H](n4cnc5c(N)nc(F)nc54)O[C@@H]3COP(=O)(O)OC2C1O` (stereo partly drawn) [Compound 53], the results for the ΔTm at 150 µM in test [1] and in test [2] were 3 °C and 8.8 °C, respectively. Further, the EC50 in test [3] amounted to 900 nM.

On to `Nc1nc2c(nnn2[C@@H]2O[C@@H]3OCP(=O)(O)OC4C(O)[C@H](n5cnc6c(N)ncnc65)O[C@@H]4COP(=O)(O)OC3C2O)c(=O)[nH]1` (stereo partly drawn) [Compound 54], for which the results for the ΔTm at 150 µM in test [1] and in test [2] were 3.9 °C and 12.2 °C, respectively. Also, in test [3], the 50% effective concentration (EC50) turned out to be 60 nM.

Regarding “(2R,3R,3aS,7aR,9R,10R,10aR,14aR)-2,9-bis(6-amino-9H-purin-9-yl)-10-fluoro-3,5,12-trihydroxydecahydrodifuro[3,2-d:3′,2′-i][1,3,6,9]tetraoxa[2,8]diphosphacyclododecine 5,12-dioxide [Compound 33]”, the “DSF ΔTm WT STING” value in test [1] amounted to 5.7 °C. Also, in test [2], the “DSF ΔTm AQ STING” value was 12.0 °C. Besides, in test [3], the EC50 came to 110 nM.

The values above are taken from patent US10966999B2, “3′3′ cyclic dinucleotides with phosphonate bond activating the sting adaptor protein” (INSTITUTE OF ORGANIC CHEMISTRY AND BIOCHEMISTRY ASCR, V.V.I., priority 2017, dated 2021).
